Experimental data reported in the NIST ThermoML archive (doi:10.1007/s10765-005-5567-5).

Assay: mn = molality of the nth substance listed, in mol/kg
Details: Liquid; for viscosity: Capillary tube (Ostwald / Ubbelohde) method; for thermal conductivity: Coaxial cylinder method

O=S(=O)([O-])[O-].[K+].[K+] [potassium sulfate] + O
Details	thermal conductivity, 10000 kPa [W/m/K]	thermal conductivity, 30000 kPa [W/m/K]	viscosity, 10 kPa [mPa·s]	viscosity, 20 kPa [mPa·s]	viscosity, 30 kPa [mPa·s]
397.25 K, m1 = 0.305	–	–	–	0.2531	0.2565
398.55 K, m1 = 0.0658	–	–	0.2289	0.2321	0.236
422.05 K, m1 = 0.407	–	–	0.2131	0.2154	0.2189
423 K, m1 = 0.499	0.678	0.69	–	–	–
423.3 K, m1 = 0.782	0.671	0.684	–	–	–
423.55 K, m1 = 0.305	–	–	0.204	0.2068	0.2096
423.6 K, m1 = 0.239	0.683	0.696	–	–	–
423.85 K, m1 = 0.0658	–	–	0.1881	0.1926	0.196
425.45 K, m1 = 0.2055	–	–	0.1946	0.1974	0.2
446.85 K, m1 = 0.407	–	–	0.1811	0.184	0.1867
447.35 K, m1 = 0.0658	–	–	0.1613	0.1645	0.166
448.1 K, m1 = 0.782	0.665	0.681	–	–	–
448.35 K, m1 = 0.2055	–	–	0.1679	0.1705	0.1732
448.55 K, m1 = 0.305	–	–	0.1735	0.1769	0.179
448.7 K, m1 = 0.239	0.678	0.691	–	–	–
449.8 K, m1 = 0.499	0.672	0.686	–	–	–
470.75 K, m1 = 0.407	–	–	0.1586	0.1605	0.1641
472.05 K, m1 = 0.0658	–	–	0.1403	0.1436	0.146
472.9 K, m1 = 0.499	0.659	0.676	–	–	–
473.4 K, m1 = 0.239	0.665	0.681	–	–	–
473.8 K, m1 = 0.782	0.652	0.671	–	–	–
475.85 K, m1 = 0.305	–	–	0.1492	0.1521	0.1545
477.45 K, m1 = 0.2055	–	–	0.143	0.1456	0.1482
496.35 K, m1 = 0.0658	–	–	0.1244	0.1276	0.13
497.45 K, m1 = 0.2055	–	–	0.1294	0.1322	0.1348
498.3 K, m1 = 0.499	0.639	0.657	–	–	–
498.5 K, m1 = 0.239	0.644	0.664	–	–	–
498.55 K, m1 = 0.407	–	–	0.1388	0.1409	0.1444
498.6 K, m1 = 0.782	0.632	0.65	–	–	–
499.95 K, m1 = 0.305	–	–	0.1332	0.1369	0.14
523.05 K, m1 = 0.2055	–	–	0.1162	0.1191	0.1219
523.2 K, m1 = 0.499	0.61	0.63	–	–	–
523.3 K, m1 = 0.239	0.617	0.637	–	–	–
523.85 K, m1 = 0.407	–	–	0.1248	0.1286	0.1307
523.9 K, m1 = 0.782	0.602	0.623	–	–	–
524.45 K, m1 = 0.0658	–	–	0.1097	0.1135	0.116
527.35 K, m1 = 0.305	–	–	0.1185	0.1216	0.1243
541.55 K, m1 = 0.407	–	–	0.1171	0.12	0.1236
545.05 K, m1 = 0.0658	–	–	0.1008	0.1045	0.1072
547.9 K, m1 = 0.239	0.584	0.61	–	–	–
548.2 K, m1 = 0.499	0.577	0.604	–	–	–
548.45 K, m1 = 0.305	–	–	0.1087	0.1119	0.115
548.5 K, m1 = 0.782	0.57	0.598	–	–	–
550.55 K, m1 = 0.2055	–	–	0.1039	0.1072	0.1105
571.55 K, m1 = 0.0658	–	–	0.0902	0.094	0.0972
573.2 K, m1 = 0.499	0.534	0.568	–	–	–
573.2 K, m1 = 0.782	0.525	0.56	–	–	–
573.35 K, m1 = 0.305	–	–	0.0976	0.1016	0.1035
573.8 K, m1 = 0.239	0.54	0.574	–	–	–
574.35 K, m1 = 0.2055	–	–	0.094	0.0973	0.1014
575.25 K, m1 = 0.407	–	–	0.1021	0.1067	0.1102
